Tests used:
[1] = tested on: relapsed and refractory CLL patients; assay: Phase I dose escalation: clinical response and PFS; type: in vivo, human
[2] = tested on: tumor FDG uptake (SUV); assay: FDG PET/CT tumor metabolic response; type: in vivo, human; settings: Baseline vs Cycle 1 Day 22; 29 subjects scanned, 4 not evaluable
[3] = tested on: MCL-1; assay: Western blot protein expression in patient samples; type: in vivo, human; settings: 2 and 4 hours of treatment vs pretreatment, P<0.0001
[4] = tested on: XIAP; assay: Western blot protein expression in patient samples; type: in vivo, human; settings: 2 and 4 hours of treatment vs pretreatment
[5] = tested on: bcl-2; assay: Western blot protein expression in patient samples; type: in vivo, human; settings: 2 and 4 hours of treatment vs pretreatment
[6] = tested on: T-cells; settings: pre-clinical; cited from earlier work
[7] = Plasma pharmacokinetics after 2-hr IV infusion; settings: for AUC / Cmax / half-life: human, plasma, intravenous; for AUC / Cmax: Mean

With `CCc1cnn2c(NCc3ccc[n+]([O-])c3)cc(N3CCCC[C@H]3CCO)nc12` [Dinaciclib] the “No (%) of Responders” value ([1]; 14 mg/mg/m^2 dosing during treatment, 35 pts) was 22 (63) No (%), the response rate ([1]; 21 patients without del(17)(p13.1)) was 57% and the response rate ([1]; 25 patients with del(17)(p13.1)) was 56%. For the same compound, the “95% confidence interval of response rate” value ([1]; 35 patients at phase 2 dose of 14 mg/m^2) was 47–79%, the “No (%) of Responders” value ([1]; Total, 52 pts) was 28 (54) No (%) and the “overall response to therapy” value ([1]; all 52 patients, IWCLL 2008 partial responses) was 54%. The complete responses ([1]; all patients) was “no complete responses”, the “patients off therapy for progression of disease” value ([1]; all patients) was 27% and the “median progression free survival” value ([1]; all patients, Kaplan-Meier estimate) was 481 days. The “median time to response (range)” value ([1]; all responders) was 85 (27–244) days, the response rate ([1]; bulky disease) was 52% and the “No (%) of Responders” value ([1]; dose level 5 mg/m^2, 4 pts) was 1 (25) No (%). The “No (%) of Responders” value ([1]; dose level 10 mg/m^2, 3 pts) was 2 (67) No (%), the “No (%) of Responders” value ([1]; dose level 14 mg/m^2, 16 pts) was 11 (69) No (%) and the “No (%) of Responders” value ([1]; dose level 17 mg/m^2, 4 pts) was 1 (25) No (%). The “No (%) of Responders” value ([1]; dose level 10→14 mg/m^2, 6 pts) was 4 (67) No (%), the response rate ([1]; non-bulky (< 5 cm nodes) disease) was 71% and the response rate ([1]; prior flavopiridol exposure) was 38%. For the same compound, the response rate ([1]; recommended phase II dose (14 mg/m^2) at the final dose, 35 patients) was 63%, the PET non-responders [2] was 10 and the “PET responders (30% or more decrease in SUV)” value [2] was 15. The MCL-1 protein expression [3] was “significantly reduced expression”, the XIAP protein level [4] was “no significant change” and the BCL2 protein level [5] was “no significant change”. The “cytotoxicity to T-cells” value [6] was “not cytotoxic”, the “CL, Mean” value ([7]; Day 1, 5 mg/m^2) was 26.2 L/hr/m2 and the “Vd, Mean” value ([7]; Day 1, 5 mg/m^2) was 92.8 L/m2. For the same compound, the “CL, Mean” value ([7]; Day 1, 7 mg/m^2) was 17.3 L/hr/m2, the “Vd, Mean” value ([7]; Day 1, 7 mg/m^2) was 66.2 L/m2 and the “CL, Mean” value ([7]; Day 1, 10 mg/m^2) was 19.9 L/hr/m2. For the same compound, the “Vd, Mean” value ([7]; Day 1, 10 mg/m^2) was 81.8 L/m2, the “CL, Mean” value ([7]; Day 1, 14 mg/m^2) was 18.1 L/hr/m2 and the “Vd, Mean” value ([7]; Day 1, 14 mg/m^2) was 74.4 L/m2. For the same compound, the “CL, Mean” value ([7]; Day 1, 17 mg/m^2) was 13.2 L/hr/m2, the “Vd, Mean” value ([7]; Day 1, 17 mg/m^2) was 55.9 L/m2 and the “CL, Mean” value ([7]; Day 15, 5 mg/m^2) was 16.1 L/hr/m2. The “Vd, Mean” value ([7]; Day 15, 5 mg/m^2) was 60.3 L/m2, the “CL, Mean” value ([7]; Day 15, 7 mg/m^2) was 23.8 L/hr/m2 and the “Vd, Mean” value ([7]; Day 15, 7 mg/m^2) was 79.5 L/m2. The “CL, Mean” value ([7]; Day 15, 10 mg/m^2) was 16.8 L/hr/m2, the “Vd, Mean” value ([7]; Day 15, 10 mg/m^2) was 68.4 L/m2 and the “CL, Mean” value ([7]; Day 15, 14 mg/m^2) was 17 L/hr/m2. The “Vd, Mean” value ([7]; Day 15, 14 mg/m^2) was 71.4 L/m2, the “CL, Mean” value ([7]; Day 15, 17 mg/m^2) was 13.8 L/hr/m2 and the “Vd, Mean” value ([7]; Day 15, 17 mg/m^2) was 58.9 L/m2. The “increases in exposure (Cmax and AUC)” value ([7]; at 17 mg/m^2) was “greater than dose-proportional”, the AUC ([7]; 5 mg/m2, AUC(I), Day 1, 5 mg/m^2) was 191 ng·h/mL and the AUC ([7]; 5 mg/m2, AUC(I), Day 15, 5 mg/m^2) was 310 ng·h/mL. The Cmax ([7]; 5 mg/m2, Cmax, Day 1, 5 mg/m^2) was 95.4 ng/mL, the Cmax ([7]; 5 mg/m2, Cmax, Day 15, 5 mg/m^2) was 150 ng/mL and the half-life ([7]; 5 mg/m2, T1/2, Mean, Day 1, 5 mg/m^2) was 2.45 h. The half-life ([7]; 5 mg/m2, T1/2, Mean, Day 15, 5 mg/m^2) was 2.5 h, the AUC ([7]; 7 mg/m2, AUC(I), Day 1, 7 mg/m^2) was 403 ng·h/mL and the AUC ([7]; 7 mg/m2, AUC(I), Day 15, 7 mg/m^2) was 294 ng·h/mL. The Cmax ([7]; 7 mg/m2, Cmax, Day 15, 7 mg/m^2) was 157 ng/mL, the half-life ([7]; 7 mg/m2, T1/2, Mean, Day 15, 7 mg/m^2) was 2.31 h and the AUC ([7]; 10 mg/m2, AUC(I), Day 1, 10 mg/m^2) was 501 ng·h/mL. The AUC ([7]; 10 mg/m2, AUC(I), Day 15, 10 mg/m^2) was 592 ng·h/mL, the Cmax ([7]; 10 mg/m2, Cmax, Day 1, 10 mg/m^2) was 277 ng/mL and the Cmax ([7]; 10 mg/m2, Cmax, Day 15, 10 mg/m^2) was 299 ng/mL. The half-life ([7]; 10 mg/m2, T1/2, Mean, Day 1, 10 mg/m^2) was 2.85 h, the half-life ([7]; 10 mg/m2, T1/2, Mean, Day 15, 10 mg/m^2) was 2.82 h and the AUC ([7]; 14 mg/m2, AUC(I), Day 1, 14 mg/m^2) was 775 ng·h/mL. The AUC ([7]; 14 mg/m2, AUC(I), Day 15, 14 mg/m^2) was 827 ng·h/mL, the Cmax ([7]; 14 mg/m2, Cmax, Day 1, 14 mg/m^2) was 404 ng/mL and the Cmax ([7]; 14 mg/m2, Cmax, Day 15, 14 mg/m^2) was 428 ng/mL. The half-life ([7]; 14 mg/m2, T1/2, Mean, Day 1, 14 mg/m^2) was 2.85 h, the AUC ([7]; 17 mg/m2, AUC(I), Day 1, 17 mg/m^2) was 1290 ng·h/mL and the AUC ([7]; 17 mg/m2, AUC(I), Day 15, 17 mg/m^2) was 1260 ng·h/mL. For the same compound, the Cmax ([7]; 17 mg/m2, Cmax, Day 1, 17 mg/m^2) was 624 ng/mL, the Cmax ([7]; 17 mg/m2, Cmax, Day 15, 17 mg/m^2) was 634 ng/mL and the half-life ([7]; 17 mg/m2, T1/2, Mean, Day 15, 17 mg/m^2) was 2.95 h. For the same compound, the accumulation in plasma ([7]; weekly 2-hour IV infusion) was “did not accumulate”.

Source: PMC4551390 (Leukemia, 2015)
